According to US20260250320A1, “LIPIDATED PEPTIDE INHIBITORS OF INTERLEUKIN-23 RECEPTOR” (Janssen Pharmaceutica NV, priority 2023, published 2026):
pIC50: −log10 of the molar value. *1 amine or outer side, *2 acyl side, *3 side chain or, on linkers, in order; H or OH if unused. Where a SMILES comes first, the peptide text is derived from it. Bridges are numbered along the chain shown (N, C = ends). Side-chain parts run from the residue outwards. [ ]: non-standard residue; d: D form. The star is where a group is joined. X13 = O=C(O)CCCCCCCCCCCCCCCCC(=O)NCCOCCOCCOCCOCCOCCOCCOCCOCCOCCOCCOCCOCC(=O)*; Me3N+CH2CH2(OCH2CH2)4CO = C[N+](C)(C)CCOCCOCCOCCOCCC(=O)*; Me3N+(CH2)2O(CH2)2O(CH2)2CO = C[N+](C)(C)CCOCCOCCC(=O)*; PEG12 = NCCOCCOCCOCCOCCOCCOCCOCCOCCOCCOCCOCCOCCC(=O)O; Trp(7-Me,2,3-dihydro) = Cc1cccc2c1NCC2C[C@H](N)C(=O)O; Trp(7-Me) = Cc1cccc2c(C[C@H](N)C(=O)O)c[nH]c12; C20 diacid = O=C(O)CCCCCCCCCCCCCCCCCCC(=O)*; C18 diacid = O=C(O)CCCCCCCCCCCCCCCCC(=O)*; X6 = CN(CC[C@H](N[*:1])C(=O)[*:2])[*:3]; Phe(4-Me) = Cc1ccc(C[C@H](N)C(=O)O)cc1; γGlu = O=C(O)[C@H](CCC(=O)[*:2])N[*:1]; 2Nal = N[C@@H](Cc1ccc2ccccc2c1)C(=O)O; AEF = NCCOc1ccc(C[C@H](N)C(=O)O)cc1; 3Pal = N[C@@H](Cc1cccnc1)C(=O)O; Lys(Me) = CNCCCC[C@H](N)C(=O)O; NMeK = CN[C@@H](CCCCN)C(=O)O; Pen = CC(C)(S)[C@H](N)C(=O)O; Thp = NC1(C(=O)O)CCOCC1; X1 = C[N+](C)(C)CCCCC*; AEEA = NCCOCCOCC(=O)O; Sar = CNCC(=O)O

Legend:
IL-23R = target: T1, IL-23R (Homo sapiens, UniProt Q5VWK5); assay: IL23R Reporter Assay; assay type: cell-based; details: HEK293 cells containing IL-23R, IL-12Rβ1 and STAT-inducible firefly luciferase reporter; 10 ng/mL IL-23 (EC90); 5 h
T1 construct: HEK293 cells containing IL-23R, IL-12Rβ1 and a firefly luciferase reporter gene driven by a STAT-inducible promoter (Promega); host or cells: HEK293
T1 sequence (Q5VWK5 24-629): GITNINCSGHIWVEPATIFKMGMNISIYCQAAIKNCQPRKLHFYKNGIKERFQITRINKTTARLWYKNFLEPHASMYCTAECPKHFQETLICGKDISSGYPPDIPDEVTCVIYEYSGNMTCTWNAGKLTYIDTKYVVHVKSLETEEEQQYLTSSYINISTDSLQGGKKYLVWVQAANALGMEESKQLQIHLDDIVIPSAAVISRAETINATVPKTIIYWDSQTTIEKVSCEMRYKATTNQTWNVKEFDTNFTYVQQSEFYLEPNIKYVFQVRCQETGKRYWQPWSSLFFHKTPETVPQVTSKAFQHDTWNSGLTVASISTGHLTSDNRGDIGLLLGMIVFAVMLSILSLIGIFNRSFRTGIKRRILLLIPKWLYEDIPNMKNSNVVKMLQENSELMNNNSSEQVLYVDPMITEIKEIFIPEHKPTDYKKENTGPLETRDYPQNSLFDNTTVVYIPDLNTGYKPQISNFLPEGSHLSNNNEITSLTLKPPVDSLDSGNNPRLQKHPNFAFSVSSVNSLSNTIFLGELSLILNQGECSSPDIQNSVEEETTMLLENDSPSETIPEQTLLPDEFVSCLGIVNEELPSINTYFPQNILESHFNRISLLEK
Procedure, shortened: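 IC50 values were fitted with a 4-parameter Hill equation to luciferase signal, scaled between IL-23-only wells (0% inhibition) and 30 μM reference inhibitor (100%). The readout was a STAT-inducible reporter in IL-23R/IL-12Rβ1 HEK293 cells, stimulated with added 10 ng/mL IL-23 (EC90) for 5 h at 37° C and developed with BioGlo.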

[1] = tested on: IL-23-stimulated phosphorylated STAT3 in peripheral blood mononuclear cells (PBMCs); assay: PBMC pSTAT3 Assay; assay type: cell-based; details: PBMCs from healthy donors; 30 min preincubation with peptide; IL-23 5 ng/mL for 30 min; phospho-STAT3 by MSD
Procedure, shortened: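 Phospho-STAT3 quantified by Meso Scale assay in lysates of PBMCs exposed to IL-23 (5 ng/mL, 30 min, 37 °C) after 30 min peptide pretreatment. Cells were cryopreserved donor PBMCs activated 4 days with anti-CD3 plus IL-1β (100 ng/mL) and starved ~4 h; IC50 reported.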

| pIC50 (IL-23R) | SMILES | pIC50 [1] |
| --- | --- | --- |
| 6.30 to 7.30 | Cc1cccc2c1NCC2C[C@@H]1NC(=O)[C@H]([C@@H](C)O)NC(=O)[C@H](CC(=O)N(C)C)NC(=O)[C@@H](NC(=O)CCOCCOCCOCCOCC[N+](C)(C)C)C(C)(C)SSC(C)(C)[C@@H](C(=O)N[C@@H](Cc2ccc(OCCN)cc2)C(=O)N[C@@H](Cc2ccc3ccccc3c2)C(=O)NC2(C(=O)N[C@@H](CCC(=O)O)C(=O)N[C@@H](CC(N)=O)C(=O)N[C@@H](Cc3cccnc3)C(=O)N(C)[C@@H](CCCCNC(=O)COCCOCCOCCOCCOCCOCCOCCOCCOCCOCCOCCOCCNC(=O)CCCCCCCCCCCCCCCCC(=O)O)C(N)=O)CCOCC2)NC(=O)[C@H](CCN(C)C(=O)CCOCCOCCOCCOCC[N+](C)(C)C)NC1=O (stereo partly shown) [compound 136, cPEG5aCO-Pen(3)-N(N(Me)2)-T-7MeW-Dab(NMecPEG5a)-Pen(3)-AEF-2Nal-THP-E-N-3Pya-NMeK(PEG12C18OH)-CONH2] ({Me3N+CH2CH2(OCH2CH2)4CO}-[Pen]D(NMe2)T[Trp(7-Me,2,3-dihydro)][X6](Me3N+CH2CH2(OCH2CH2)4CO)[Pen][AEF][2Nal][Thp]EN[3Pal][NMeK](X13)-NH2; disulfide 1-6) | 8.30 to 9.30 |
| > 7.30 | CC(=O)NCCCC[C@@H]1NC(=O)[C@H](Cc2c[nH]c3c(C)cccc23)NC(=O)[C@H]([C@@H](C)O)NC(=O)[C@H](CC(N)=O)NC(=O)[C@@H](NC(=O)[C@@H](CCCCNC(=O)CCOCCOCCOCCOCCOCCOCCOCCOCCOCCOCCOCCOCCNC(=O)CC[C@H](NC(=O)CCCCCCCCCCCCCCCCC(=O)O)C(=O)O)NC(C)=O)C(C)(C)SSC(C)(C)[C@@H](C(=O)N[C@@H](Cc2ccc(OCCN)cc2)C(=O)N[C@@H](Cc2ccc3ccccc3c2)C(=O)NC2(C(=O)N[C@@H](CCC(=O)O)C(=O)N[C@@H](CC(N)=O)C(=O)N[C@@H](Cc3cccnc3)C(=O)N(C)CC(N)=O)CCOCC2)NC1=O [compound 117, MeCO-k(PEG12gEC18OH)-Pen(3)-N-T-7MeW-K(Ac)-Pen(3)-AEF-2Nal-THP-E-N-3Pya-Sar-CONH2] (Ac-[dK]([PEG12-γGlu-C18 diacid])[Pen]NT[Trp(7-Me)]K(Ac)[Pen][AEF][2Nal][Thp]EN[3Pal][Sar]-NH2; disulfide 2-7) | > 9.30 |
| > 7.30 | Cc1cccc2c(C[C@@H]3NC(=O)[C@H]([C@@H](C)O)NC(=O)[C@H](CC(N)=O)NC(=O)[C@@H](NC(=O)[C@@H](CCCNC(=N)N)CC(=O)COCCOCCNC(=O)COCCOCCNC(=O)CC[C@H](NC(=O)CCCCCCCCCCCCCCCCC(=O)O)C(=O)O)C(C)(C)SSC(C)(C)[C@@H](C(=O)N[C@@H](Cc4ccc(OCCN)cc4)C(=O)N[C@@H](Cc4ccc5ccccc5c4)C(=O)NC4(C(=O)N[C@@H](CCC(=O)O)C(=O)N[C@@H](CC(N)=O)C(=O)N[C@@H](Cc5cccnc5)C(=O)N(C)CC(N)=O)CCOCC4)NC(=O)[C@H](CCCCN(C)C(=O)CCCCCOCC[N+](C)(C)C)NC3=O)c[nH]c12 [compound 84, HOC18gEPEG2PEG2CO-r-Pen(3)-N-T-7MeW-K(NMecPEG3a)-Pen(3)-AEF-2Nal-THP-E-N-3Pya-Sar-CONH2] | > 9.30 |

Second part, the molecule before the results:

| SMILES | pIC50 (IL-23R) | pIC50 [1] |
| --- | --- | --- |
| CC(=O)NCCCC[C@@H]1NC(=O)[C@H](Cc2c[nH]c3c(C)cccc23)NC(=O)[C@H]([C@@H](C)O)NC(=O)[C@H](CCCCNC(=O)COCCOCCNC(=O)COCCOCCNC(=O)CC[C@H](NC(=O)CCCCCCCCCCCCCCCCC(=O)O)C(=O)O)NC(=O)[C@@H](NC(=O)[C@@H](CCCNC(=N)N)NC(C)=O)C(C)(C)SSC(C)(C)[C@@H](C(=O)N[C@@H](Cc2ccc(OCCCCC[N+](C)(C)C)cc2)C(=O)N[C@@H](Cc2ccc3ccccc3c2)C(=O)NC2(C(=O)N[C@@H](CCC(=O)O)C(=O)N[C@@H](CC(N)=O)C(=O)N[C@@H](Cc3cccnc3)C(=O)N(C)CC(N)=O)CCOCC2)NC1=O [compound 75, MeCO-r-Pen(3)-K(PEG2PEG2gEC18OH)-T-7MeW-K(Ac)-Pen(3)-TMAPF-2Nal-THP-E-N-3Pya-Sar-CONH2] (Ac-[dR][Pen]K([AEEA-AEEA-γGlu-C18 diacid])T[Trp(7-Me)]K(Ac)[Pen]Y(X1)[2Nal][Thp]EN[3Pal][Sar]-NH2; disulfide 2-7) | > 7.30 | > 9.30 |
| CC(=O)NCCCC[C@@H]1NC(=O)[C@H](Cc2c[nH]c3c(C)cccc23)NC(=O)[C@H]([C@@H](C)O)NC(=O)[C@H](CC(N)=O)NC(=O)[C@@H](NC(=O)CCOCCOCC[N+](C)(C)C)C(C)(C)SSC(C)(C)[C@@H](C(=O)N[C@@H](Cc2ccc(OCCCCC[N+](C)(C)C)cc2)C(=O)N[C@@H](Cc2ccc3ccccc3c2)C(=O)NC2(C(=O)N[C@@H](CCCCNC(=O)COCCOCCNC(=O)COCCOCCNC(=O)CC[C@H](NC(=O)CCCCCCCCCCCCCCCCCCC(=O)O)C(=O)O)C(=O)N[C@@H](N)C(=O)N[C@@H](Cc3ccccn3)C(=O)N(C)CC(N)=O)CCOCC2)NC1=O [compound 126, cPEG3aCO-Pen(3)-N(N(Me)2)-T-7MeW-K(NMeAc)-Pen(3)-TMAPF-2Nal-THP-K(PEG2PEG2gEC20OH)-N-3Pya-Sar-CON(Me)2] | > 7.30 | > 9.30 |
| CC(=O)N[C@H](CCCNC(=N)N)C(=O)N[C@@H]1C(=O)N[C@@H](CCCCNC(=O)COCCOCCNC(=O)COCCOCCNC(=O)CC[C@H](NC(=O)CCCCCCCCCCCCCCCCC(=O)O)C(=O)O)C(=O)N[C@@H]([C@@H](C)O)C(=O)N[C@@H](Cc2c[nH]c3c(C)cccc23)C(=O)N[C@@H](CCCCN(C)C(=O)CCOCCOCC[N+](C)(C)C)C(=O)N[C@H](C(=O)N[C@@H](Cc2ccc(OCCN)cc2)C(=O)N[C@@H](Cc2ccc3ccccc3c2)C(=O)NC2(C(=O)N[C@@H](CCC(=O)O)C(=O)N[C@@H](CC(N)=O)C(=O)N[C@@H](Cc3cccnc3)C(=O)N(C)CC(N)=O)CCOCC2)C(C)(C)SSC1(C)C [compound 77, 5cpaCO-Pen(3)-N-T-7MeW-K(Ac)-Pen(3)-AEF-2Nal-THP-K(PEG2PEG2gEC18OH)-N-3Pya-Sar-CONH2] (Ac-[dR][Pen]K([AEEA-AEEA-γGlu-C18 diacid])T[Trp(7-Me)][Lys(Me)](Me3N+(CH2)2O(CH2)2O(CH2)2CO)[Pen][AEF][2Nal][Thp]EN[3Pal][Sar]-NH2; disulfide 2-7) | 6.30 to 7.30 | > 9.30 |
| CC(=O)N(C)CCCC[C@@H]1NC(=O)[C@H](Cc2c[nH]c3ccccc23)NC(=O)[C@H]([C@@H](C)O)NC(=O)[C@H](CCCCNC(=O)COCCOCCNC(=O)COCCOCCNC(=O)CC[C@H](NC(=O)CCCCCCCCCCCCCCCCC(=O)O)C(=O)O)NC(=O)[C@@H](NC(=O)CCOCCOCC[N+](C)(C)C)C(C)(C)SSC(C)(C)[C@@H](C(=O)N[C@@H](Cc2ccc(OCCCCC[N+](C)(C)C)cc2)C(=O)N[C@@H](Cc2ccc3ccccc3c2)C(=O)NC2(C(=O)N[C@@H](CCCCN(C)C(C)=O)C(=O)N[C@@H](CC(N)=O)C(=O)N[C@@H](Cc3cccnc3)C(=O)N(C)CC(=O)N(C)C)CCOCC2)NC1=O [compound 122, cPEG3aCO-Pen(3)-K(PEG2PEG2gEC18OH)-T-7MeW-K(NMeAc)-Pen(3)-TMAPF-2Nal-THF-K(NMeAc)-N-3Pya-Sar-CON(Me)2] ({Me3N+(CH2)2O(CH2)2O(CH2)2CO}-[Pen]K([AEEA-AEEA-γGlu-C18 diacid])TW[Lys(Me)](Ac)[Pen]Y(X1)[2Nal][Thp][Lys(Me)](Ac)N[3Pal][Sar]-NMe2; disulfide 1-6) | 6.30 to 7.30 | > 9.30 |
| CC(=O)NCCCC[C@@H]1NC(=O)[C@H](CC2CNc3c(C)cccc32)NC(=O)[C@H]([C@@H](C)O)NC(=O)[C@H](CC(N)=O)NC(=O)[C@@H](NC(C)=O)C(C)(C)SSC(C)(C)[C@@H](C(=O)N[C@@H](Cc2ccc(C)cc2)C(=O)N[C@@H](Cc2ccc3ccccc3c2)C(=O)NC2(C(=O)N[C@@H](CCCCNC(=O)CCOCCOCCOCCOCCOCCOCCOCCOCCOCCOCCOCCOCCNC(=O)CC[C@H](NC(=O)CCCCCCCCCCCCCCCCCCC(=O)O)C(=O)O)C(=O)N[C@@H](CC(N)=O)C(=O)N[C@@H](Cc3cccnc3)C(=O)N(C)CC(N)=O)CCOCC2)NC1=O (stereo partly drawn) [compound 162, MeCO-Pen(3)-N-T-7MeW-K(Ac)-Pen(3)-AEF-2Nal-THP-K(PEG12gEC20OH)-N-3Pya-Sar-CONH2] (Ac-[Pen]NT[Trp(7-Me,2,3-dihydro)]K(Ac)[Pen][Phe(4-Me)][2Nal][Thp]K([PEG12-γGlu-C20 diacid])N[3Pal][Sar]-NH2; disulfide 1-6) | 6.30 to 7.30 | > 9.30 |
